Converted amounts (≈) assume the structure as drawn. Like-named read-outs stand apart in the source and are kept apart here. Some results are limits rather than exact numbers.

A short description of data set [1]: Stability against DHP-I (mouse). The class given is in vitro ADME. Conditions: kidney dhp-i, 100 μg (potency)/ml, 37° C., pH 7.0, read-out: residue (%) of the carbapenem derivative. As for the experimental part: (§1) The stability of representative compounds, among the novel carbapenem derivatives of the present invention, against kidney dehydropeptidase-I (DHP-I) of a pig and a mouse was measured, and the residue (%) of the carbapenem derivatives three hr after the initiation of the test is summarized in Table 6.
(§2) 1.5 g of a kidney acetone powder (manufactured by Sigma) Porcine Type II (Lot. 33H7225) was suspended in 100 ml of 50 mM Tris-HCl buffer (pH 7.0) containing 20% butanol, and the suspension was stirred at 5° C. for 48 hr. The suspension was then dialyzed against 50 mM Tris-HCl buffer (pH 7.0) (a cellulose tube 30/32 Viskase Sales Corp.) until the odor of butanol disappeared, thereby removing butanol. The dialyzate is centrifuged at 10000×g (KUBOTA 6800) for 20 min, and the supernatant was obtained as a partially purified DHP-I. This partially purified DHP-I was subdivided and stored at -80° C. The above procedure was repeated, except that 1.5 g of Mouse (Lot. 23F8105) was used. Thus, a partially purified DHP-I was prepared and stored.
(§3) For the carbapenem as the substrate agent, a solution (2000 μg (potency)/ml) was prepared using sterilized, purified water. For the sample solution, the carbapenem (2000 μg (potency)/ml) solution was added to the partially purified DHP-I of each animal to a final concentration of 100 μg (potency)/ml). For the blank, 50 mM Tris-HCl buffer (pH 7.0) was used instead of the partially purified DHP-I of each animal. The reaction was allowed to proceed at 37° C. for 3 hr, and a given amount of the reaction mixture was sampled. Methanol in the same amount as the sampled reaction mixture was added under ice cooling to terminate the reaction. The reaction mixture was filtered through a filter (Sanprep LCR 13-LH manufactured by MILLIPORE) and subjected to HPLC (column: CAPCELL PACK C18SG120, manufactured by Shiseido Co., Ltd.; detection: UV; mobile layer: acetonitrile/10 mM aqueous acetic acid solution) to determined the residue (%).
(§4) Residue (%)=(Sample Peak Area/Blank Peak Area)×100

In data set [2] the test system is M. morganii 1510. As to the kind of experiment: Antimicrobial activity (minimum inhibitory concentration). The class given is cell-based. Conditions: Morganella morganii. As for the experimental part:
(§5) For representative compounds among the novel carbapenem derivatives of the present invention, the minimum inhibitory concentration (MIC, μg/ml) against various pathogenic bacteria was measured in accordance with a method described in CHEMOTHERAPY, Vol. 16, No. 1, 99 (1968).

The subject of data set [3] is E. coli NIHJ JC-2. The description is as above. It counts as cell-based. The following applies: Escherichia coli, NIHJJC2. As for the experimental part:
as §5

Data set [4] has as its system S. aureus M126. Described as above. The following applies: Staphylococcus aureus; S. aureus M126, highly meticillin-resistant strain. It counts as cell-based. As for the experimental part: as §5
The test system of data set [5] is E. cloacae G-0008. Described as above. Conditions: Enterobacter cloacae, G0008. The class given is cell-based. As for the experimental part:
as §5

In data set [6] the test system is K. pneumoniae PCI602. The description is as above. It counts as cell-based. The following applies: Klebsiella pneumoniae. As for the experimental part: as §5
The test system of data set [7] is S. aureus 209P JC-1. The data set is described as above. It counts as cell-based. The following applies: Staphylococcus aureus. As for the experimental part: as §5
For data set [8], the system named is P. vulgaris GN76. Described as above. It counts as cell-based. Conditions: Proteus vulgaris. As for the experimental part: as §5
The subject of data set [9] is C. freundii GN346. The data set is described as above. Conditions: Citrobacter freundii. The class given is cell-based. As for the experimental part: as §5
Data set [10] deals with S. marcescens No. 1. The data set is described as above. It counts as cell-based. The following applies: Serratia marcescens. As for the experimental part:
as §5

Data set [11] concerns E. coli GN206. The data set is described as above. The following applies: Escherichia coli. It counts as cell-based. As for the experimental part:
as §5

The subject of data set [12] is Ps. aeruginosa GN10362. The description is as above. It counts as cell-based. The following applies: Pseudomonas aeruginosa. As for the experimental part:
as §5

Data set [13] can be described thus: Stability against DHP-I (pig). It counts as in vitro ADME. The following applies: kidney dhp-i, 100 μg (potency)/ml, 37° C., pH 7.0, read-out: residue (%) of the carbapenem derivative. As for the experimental part:
as §1, §2, §3, §4

Setting [14] is: P. vulgaris GN76, read-out: MIC.
[15] abbreviates: Ps. aeruginosa GN10362, read-out: MIC.

Turning to `C[C@@H](O)[C@H]1C(=O)N2C(C(=O)O)=C(SCCN=CN)C[C@H]12` [Compound A, Imipenem, reference compound], the results for the remaining at 3 h in [1] and in [13] were 0.6% and 24%, respectively. In addition, the MIC (commonly the smallest concentration in the dilution series that meets the test's criterion for growth inhibition) is 0.78 µg/mL (≈ 2.61 µM) in data set [2]; 0.1 µg/mL (≈ 0.334 µM) in data set [3]; 50 µg/mL (≈ 167 µM) in data set [4]; 0.1 µg/mL (≈ 0.334 µM) in [5]; 0.39 µg/mL (≈ 1.3 µM) in data set [6]; less than 0.025 µg/mL in data set [7]. Besides, the minimal inhibitory concentration (MIC) was determined as 3.13 µg/mL (≈ 10.5 µM) in data set [8] (GN76); 0.1 µg/mL (≈ 0.334 µM) in data set [9]; 0.39 µg/mL (≈ 1.3 µM) in data set [10]; 0.1 µg/mL (≈ 0.334 µM) in data set [11]; 1.56 µg/mL (≈ 5.21 µM) in data set [12] (GN10362).

Turning to `CC(=N)N1CC[C@H](SC2=C(C(=O)O)N3C(=O)[C@H]([C@@H](C)O)[C@H]3C2)C1` [Compound B, Panipenem, reference compound], the remaining at 3 h in data set [1] was 28%; in [13] it was 19%. For the same compound, the MIC was 0.78 µg/mL (≈ 2.3 µM) in [2]; 0.1 µg/mL (≈ 0.295 µM) in data set [3]; 25 µg/mL (≈ 73.7 µM) in [4]; 0.2 µg/mL (≈ 0.589 µM) in data set [5]; 0.2 µg/mL (≈ 0.589 µM) in [6]; less than 0.025 µg/mL in data set [7]. In addition, the minimum inhibitory concentration (MIC) in data set [8] (setting [14]) was determined as 3.13 µg/mL (≈ 9.22 µM); in [9] it was 0.2 µg/mL (≈ 0.589 µM); in data set [10] it was 0.39 µg/mL (≈ 1.15 µM); in data set [11] it was 0.2 µg/mL (≈ 0.589 µM); in data set [12] (setting [15]), 12.5 µg/mL (≈ 36.8 µM).

As for `C[C@@H](O)[C@H]1C(=O)N2C(C(=O)O)=C(S[C@@H]3CN[C@H](C(=O)N(C)C)C3)[C@H](C)[C@H]12` [Compound C, Meropenem], the remaining at 3 h is 18% in [1] and 71% in [13].

Take `C[C@@H](O)[C@H]1C(=O)N2C(C(=O)O)=C(S[C@@H]3CN[C@H](Cc4csc5cncn45)C3)[C@H](C)[C@H]12` [Ex. 20, (1R,5S,6S)-6-((1R)-1-Hydroxyethyl)-2-[(3S,5R)-5-(imidazo[5,1-b]thiazol-3-yl)methylpyrrolidin-3-yl]thio-1-methylcarbapen-2-em-3-carboxylic acid]: the remaining at 3 h is 97% in data set [1] and 100% in data set [13].

As for `C[C@@H](O)[C@H]1C(=O)N2C(C(=O)O)=C(S[C@@H]3CN[C@H](Cc4cn5c[n+](CC(N)=O)cc5s4)C3)[C@H](C)[C@H]12` [Ex. 26, (1R,5S,6S)-2-[(3S,5S)-5-[6-(Carbamoylmethyl)imidazo[5,1-b]thiazolium-2-yl]methylpyrrolidin-3-yl]thio-6-((1R)-1-hydroxyethyl)-1-methylcarbapen-2-em-3-carboxylic acid iodide], the remaining at 3 h came out at 90% in data set [1] and 95% in data set [13]. In addition, the minimal inhibitory concentration (MIC) in data set [2] was 0.39 µg/mL; in data set [3] it was 0.05 µg/mL; in [4], 6.25 µg/mL; in data set [5], 0.05 µg/mL; in data set [6], 0.1 µg/mL; in data set [7], less than 0.025 µg/mL. Besides, the MIC was 0.39 µg/mL in [8] (setting [14]); 0.05 µg/mL in [9]; 0.2 µg/mL in data set [10]; 0.05 µg/mL in data set [11]; 0.78 µg/mL in data set [12] (setting [15]).
